The target in the experiment is α-glucosidase enzyme (Saccharomyces cerevisiae, UniProt P53341). Put plainly: Kinetic study against α-glucosidase. The experiment is classed as biochemical, S. cerevisiae.

The structures appear in SMILES notation.

Chain of α-glucosidase enzyme (P53341 whole entry): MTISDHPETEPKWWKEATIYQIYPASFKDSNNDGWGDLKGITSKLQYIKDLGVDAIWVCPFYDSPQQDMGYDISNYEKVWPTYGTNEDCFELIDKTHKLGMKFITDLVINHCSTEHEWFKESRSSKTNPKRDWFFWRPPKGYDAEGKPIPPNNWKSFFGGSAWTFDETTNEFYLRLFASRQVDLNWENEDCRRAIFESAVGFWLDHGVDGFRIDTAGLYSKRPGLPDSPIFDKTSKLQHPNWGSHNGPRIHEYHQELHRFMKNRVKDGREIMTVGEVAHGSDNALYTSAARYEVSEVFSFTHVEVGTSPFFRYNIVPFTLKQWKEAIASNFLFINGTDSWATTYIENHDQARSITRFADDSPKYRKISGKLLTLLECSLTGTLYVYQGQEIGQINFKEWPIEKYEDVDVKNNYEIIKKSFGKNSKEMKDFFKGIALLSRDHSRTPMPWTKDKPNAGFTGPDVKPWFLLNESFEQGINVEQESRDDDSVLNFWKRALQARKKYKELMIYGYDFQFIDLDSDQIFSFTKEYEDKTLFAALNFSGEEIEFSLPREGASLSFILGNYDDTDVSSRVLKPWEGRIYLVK

As to `N#CC1=C(N)Oc2c(c(=O)[nH]c3ccccc23)C1c1cccc(OCc2cn(Cc3ccccc3)nn2)c1` (centres unmarked) [8k, 2-Amino-4-(3-((1-benzyl-1H-1,2,3-triazol-4-yl)methoxy)phenyl)-5-oxo-5,6-dihydro-4H-pyrano[3,2-c]quinoline-3-carbonitrile], the affinity corresponds to a Ki of 1300 nM. For the same compound, where the note is “Lineweaver–Burk plot: Km increased, Vmax unchanged”, the inhibition mode result was “competitive inhibitor”.

Values taken from PMC10324058 (ACS Omega, 2023).
